{
  "source": "ChEMBL document CHEMBL6071153",
  "about": "“Design, synthesis, and evaluation of antitumor activity in Pseudolaric acid B Azole derivatives: Novel and potent angiogenesis inhibitor via regulation of the PI3K/AKT and MAPK mediated HIF-1/VEGF signaling pathway” (Eur J Med Chem, 2024)",
  "key": {"MDA-MB-231 [1]": {"system": "MDA-MB-231", "test": "Cytotoxicity against human MDA-MB-231 cells assessed as inhibition of cell growth incubated for 96 hrs under hypoxic condition by MTT assay", "format": "functional, cell-based", "conditions": "MDA-MB-231, 96 h"}, "MDA-MB-231 [2]": {"system": "MDA-MB-231", "test": "Cytotoxicity against human MDA-MB-231 cells assessed as fold increase in inhibition of cell growth incubated for 96 hrs under hypoxic condition by MTT assay relative to 4-hydroxycoumarin", "format": "functional"}, "MDA-MB-231 [3]": {"system": "MDA-MB-231", "test": "Cytotoxicity against human MDA-MB-231 cells assessed as fold increase in inhibition of cell growth incubated for 96 hrs under hypoxic condition by MTT assay relative to doxorubicin", "format": "functional"}, "SiHa [4]": {"system": "SiHa", "test": "Inhibition of hypoxia-induced HIF-1alpha accumulation in human SiHa cells at 0.3 to 10 uM incubated for 24 hrs under hypoxic condition by Western blotting analysis", "format": "functional, cell-based", "conditions": "dose 0.3-10 µM"}, "SiHa [5]": {"system": "SiHa", "test": "Inhibition of VEGFR in human SiHa cells assessed as decrease in intracellular VEGFR protein expression at 10 uM incubated for 24 hrs under hypoxic condition by immunofluorescence staining based analysis", "format": "cell-based"}, "HUVEC [6]": {"system": "HUVEC", "test": "Inhibition of cell invasion in human HUVEC cells at 1 to 10 uM incubated for 48 hrs under hypoxic condition by crystal violet staining based microscopic analysis relative to PAB", "format": "functional", "conditions": "dose 1-10 µM"}, "HUVEC [7]": {"system": "HUVEC", "test": "Antiangiogenic activity against human HUVEC cells assessed as inhibition of blood vessel formation at 1 to 10 uM incubated for 4 hrs under hypoxic condition by fluorescence microscopic analysis", "format": "functional, cell-based", "conditions": "dose 1-10 µM"}, "SiHa [8]": {"system": "SiHa", "test": "Inhibition of hypoxia-induced HIF-1beta accumulation in human SiHa cells at 0.3 to 10 uM incubated for 24 hrs under hypoxic condition by Western blotting analysis", "format": "functional, cell-based", "conditions": "dose 0.3-10 µM"}, "HUVEC [9]": {"system": "HUVEC", "test": "Inhibition of cell migration in human HUVEC cells at 1 uM incubated for 48 hrs under hypoxic condition by microscopic analysis relative to PAB", "format": "functional"}, "SiHa [10]": {"system": "SiHa", "test": "Cytotoxicity against human SiHa cells assessed as inhibition of cell growth incubated for 24 hrs under normoxic condition by MTT assay", "format": "functional, cell-based"}, "[11]": {"test": "Inhibition of VEGFR mediated endocytosis in human SiHa cells incubated for 24 hrs under hypoxic condition by ELISA", "format": "cell-based"}, "SiHa [12]": {"system": "SiHa", "test": "Inhibition of VEGFR in human SiHa cells incubated for 24 hrs under hypoxic condition by ELISA", "format": "cell-based"}, "HUVEC [13]": {"system": "HUVEC", "test": "Inhibition of cell migration in human HUVEC cells at 3 uM incubated for 48 hrs under hypoxic condition by microscopic analysis relative to PAB", "format": "functional"}, "HUVEC [14]": {"system": "HUVEC", "test": "Inhibition of cell migration in human HUVEC cells at 10 uM incubated for 48 hrs under hypoxic condition by microscopic analysis relative to PAB", "format": "functional"}, "HUVEC [15]": {"system": "HUVEC", "test": "Inhibition of cell migration in human HUVEC cells at 1 to 10 uM under hypoxic condition by microscopic analysis", "format": "functional, cell-based", "conditions": "dose 1-10 µM, TDE = time-dependent effect"}, "HUVEC [16]": {"system": "HUVEC", "test": "Inhibition of cell migration in human HUVEC cells incubated upto 48 hrs under hypoxic condition by microscopic analysis", "format": "functional, cell-based"}, "SiHa [17]": {"system": "SiHa", "test": "Inhibition of hypoxia-induced HIF-1alpha accumulation in human SiHa cells assessed as decrease in nuclear HIF-1alpha level at 10 uM incubated for 24 hrs under hypoxic condition by immunofluorescence staining based analysis", "format": "functional, cell-based"}, "[18]": {"target": "Hypoxia-inducible factor 1-alpha (Homo sapiens) (UniProt Q16665)", "sequence (Q16665 whole entry, looked up)": "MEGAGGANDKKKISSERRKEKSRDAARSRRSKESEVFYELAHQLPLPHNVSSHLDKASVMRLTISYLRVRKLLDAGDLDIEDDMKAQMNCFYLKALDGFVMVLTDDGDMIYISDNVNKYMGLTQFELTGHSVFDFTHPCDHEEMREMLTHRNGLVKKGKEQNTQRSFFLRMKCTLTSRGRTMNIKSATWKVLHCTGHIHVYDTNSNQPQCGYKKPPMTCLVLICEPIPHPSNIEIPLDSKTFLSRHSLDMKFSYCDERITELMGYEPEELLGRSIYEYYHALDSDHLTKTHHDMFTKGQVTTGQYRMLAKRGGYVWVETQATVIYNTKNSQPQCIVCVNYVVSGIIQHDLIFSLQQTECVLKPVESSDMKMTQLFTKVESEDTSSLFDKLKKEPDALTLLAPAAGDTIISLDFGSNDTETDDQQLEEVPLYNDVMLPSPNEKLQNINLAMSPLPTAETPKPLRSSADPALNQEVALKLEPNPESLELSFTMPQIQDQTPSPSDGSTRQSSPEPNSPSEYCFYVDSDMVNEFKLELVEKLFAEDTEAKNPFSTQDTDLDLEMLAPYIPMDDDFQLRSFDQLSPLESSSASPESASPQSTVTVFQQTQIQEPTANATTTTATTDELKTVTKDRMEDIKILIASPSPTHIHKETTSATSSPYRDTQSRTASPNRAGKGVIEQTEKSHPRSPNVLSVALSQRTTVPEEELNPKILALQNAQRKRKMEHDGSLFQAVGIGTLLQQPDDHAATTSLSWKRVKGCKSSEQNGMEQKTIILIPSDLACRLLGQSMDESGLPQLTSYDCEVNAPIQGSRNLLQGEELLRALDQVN", "test": "Inhibition of HIF-1alpha in human SiHa cells assessed as downregulation of HIF-1alpha protein expression incubated upto 60 mins under hypoxic condition by Western blotting analysis", "format": "cell-based"}, "[19]": {"target": "Hypoxia-inducible factor 1-alpha (Homo sapiens) (UniProt Q16665)", "test": "Inhibition of HIF-1alpha in human SiHa cells assessed as downregulation of HIF-1alpha protein expression incubated upto 60 mins under hypoxic condition in presence of CHX by Western blotting analysis", "format": "cell-based"}, "[20]": {"target": "Hypoxia-inducible factor 1-alpha (Homo sapiens) (UniProt Q16665)", "test": "Inhibition of HIF-1alpha in human SiHa cells assessed as downregulation of HIF-1alpha protein expression incubated upto 60 mins under hypoxic condition in presence of MG-132 by Western blotting analysis", "format": "cell-based"}, "SiHa [21]": {"system": "SiHa", "test": "Inhibition of HIF-1beta in human SiHa cells assessed as downregulation of HIF-1beta protein expression incubated upto 60 mins under hypoxic condition in presence of MG-132 by Western blotting analysis", "format": "cell-based"}, "[22]": {"test": "Inhibition of PI3K/AKT/mTOR signalling pathway in human SiHa cells assessed as downregulation of PI3K protein expression at 0.3 to 10 uM incubated for 24 hrs under hypoxic condition by Western blotting analysis", "format": "cell-based", "conditions": "dose 0.3-10 µM"}, "[23]": {"test": "Inhibition of PI3K/AKT/mTOR signalling pathway in human SiHa cells assessed as downregulation of AKT protein expression at 0.3 to 10 uM incubated for 24 hrs under hypoxic condition by Western blotting analysis", "format": "cell-based", "conditions": "dose 0.3-10 µM"}, "[24]": {"test": "Inhibition of PI3K/AKT/mTOR signalling pathway in human SiHa cells assessed as downregulation of mTOR protein expression at 0.3 to 10 uM incubated for 24 hrs under hypoxic condition by Western blotting analysis", "format": "cell-based", "conditions": "dose 0.3-10 µM"}, "[25]": {"test": "Inhibition of PI3K/AKT/mTOR signalling pathway in human SiHa cells assessed as downregulation of ERK1/2 phosphorylation at 10 uM incubated for 24 hrs under hypoxic condition by Western blotting analysis", "format": "cell-based"}, "[26]": {"test": "Inhibition of PI3K/AKT/mTOR signalling pathway in human SiHa cells assessed as downregulation of JNK phosphorylation at 10 uM incubated for 24 hrs under hypoxic condition by Western blotting analysis", "format": "cell-based"}, "[27]": {"test": "Inhibition of PI3K/AKT/mTOR signalling pathway in human SiHa cells assessed as downregulation of p38 phosphorylation at 10 uM incubated for 24 hrs under hypoxic condition by Western blotting analysis", "format": "cell-based"}, "[28]": {"test": "Inhibition of PI3K/AKT/mTOR signalling pathway in human SiHa cells assessed as downregulation of ERK1/2 protein expression at 10 uM incubated for 24 hrs under hypoxic condition by Western blotting analysis", "format": "cell-based"}, "[29]": {"test": "Inhibition of PI3K/AKT/mTOR signalling pathway in human SiHa cells assessed as downregulation of JNK protein expression at 10 uM incubated for 24 hrs under hypoxic condition by Western blotting analysis", "format": "cell-based"}, "[30]": {"test": "Inhibition of PI3K/AKT/mTOR signalling pathway in human SiHa cells assessed as downregulation of p38 protein expression at 10 uM incubated for 24 hrs under hypoxic condition by Western blotting analysis", "format": "cell-based"}, "[31]": {"test": "Toxicity in Balb/c mouse assessed as change in animal fur at 50 mg/kg,ip administration for 1 week", "format": "organism-based", "conditions": "in vivo, 168 h, time 1 weeks"}, "[32]": {"test": "Toxicity in Balb/c mouse assessed as fatality at 50 mg/kg,ip administration for 1 week", "format": "organism-based", "conditions": "in vivo, 168 h, time 1 weeks"}, "[33]": {"test": "Toxicity in Balb/c mouse xenografted with human SiHa cells assessed as reduction in body weight at 30 mg/kg,ip administration measured after 22 days", "format": "organism-based", "conditions": "in vivo, 528 h, time 22 day"}, "SiHa [34]": {"system": "SiHa", "test": "Antitumor activity against human SiHa cells xenografted in Balb/c mouse assessed as reduction in tumor growth at 30 mg/kg,ip administration measured after 22 days", "format": "functional, organism-based", "conditions": "time 22.0 day"}, "SiHa [35]": {"system": "SiHa", "test": "Antitumor activity against human SiHa cells xenografted in Balb/c mouse assessed as reduction in tumor volume at 30 mg/kg,ip administration measured after 22 days", "format": "functional, organism-based", "conditions": "time 22.0 day"}, "SiHa [36]": {"system": "SiHa", "test": "Antitumor activity against human SiHa cells xenografted in Balb/c mouse assessed as reduction in tumor weight at 30 mg/kg,ip administration measured after 22 days", "format": "functional, organism-based", "conditions": "time 22.0 day"}, "SiHa [37]": {"system": "SiHa", "test": "Antitumor activity against human SiHa cells xenografted in Balb/c mouse assessed as reduction in HIF-1alpha expression in tumor at 30 mg/kg,ip administration measured after 22 days by immunohistochemical staining based analysis", "format": "functional, organism-based", "conditions": "time 22.0 day"}, "SiHa [38]": {"system": "SiHa", "test": "Antitumor activity against human SiHa cells xenografted in Balb/c mouse assessed as reduction in VEGF expression in tumor at 30 mg/kg,ip administration measured after 22 days by immunohistochemical staining based analysis", "format": "functional, organism-based", "conditions": "time 22.0 day"}},
  "note": "Active and inactive are the calls of the source. The rule behind the calls is not given here.",
  "data": [
    {"smiles": "O=c1cc(O)c2ccccc2o1", "note": "[4-HYDROXYCOUMARINS]", "values": [
      {"measurement": "IC50", "setting": "MDA-MB-231 [1]", "value": "> 100", "unit": "µM"}
    ]},
    {"smiles": "COc1ccc(NC(=O)c2ccc(-n3cc(COc4cc(=O)oc5ccccc45)nn3)cc2)cc1OC", "values": [
      {"measurement": "fold change (FC)", "setting": "MDA-MB-231 [2]", "value": 5000},
      {"measurement": "fold change (FC)", "setting": "MDA-MB-231 [3]", "value": 20}
    ]},
    {"smiles": "COC(=O)C1=CC[C@@]23CC[C@@H]([C@@](C)(/C=C/C=C(\\C)C(=O)OCC(=O)NCc4cn(-c5ccc(Cl)cc5)nn4)OC2=O)[C@@]3(OC(C)=O)CC1", "values": [
      {"measurement": "inhibition", "setting": "SiHa [4]", "value": "Active"},
      {"measurement": "inhibition", "setting": "SiHa [5]", "value": "Active"},
      {"measurement": "inhibition", "setting": "HUVEC [6]", "value": "Active"},
      {"measurement": "Activity", "setting": "HUVEC [7]", "value": "Active"},
      {"measurement": "inhibition", "setting": "SiHa [8]", "value": "Active"},
      {"measurement": "inhibition at 1 µM", "setting": "HUVEC [9]", "value": 35.6, "unit": "%"},
      {"measurement": "IC50", "setting": "SiHa [10]", "value": "> 30", "unit": "µM"},
      {"measurement": "IC50", "setting": "[11]", "value": 0.68, "unit": "µM"},
      {"measurement": "inhibition", "setting": "SiHa [12]", "value": "Dose-Dependent Effect"},
      {"measurement": "inhibition at 3 µM", "setting": "HUVEC [13]", "value": 66.1, "unit": "%"},
      {"measurement": "inhibition at 10 µM", "setting": "HUVEC [14]", "value": 88.8, "unit": "%"},
      {"measurement": "inhibition", "setting": "HUVEC [15]", "value": "Tde"},
      {"measurement": "inhibition", "setting": "HUVEC [16]", "value": "Dose-Dependent Effect"},
      {"measurement": "inhibition", "setting": "SiHa [17]", "value": "Active"},
      {"measurement": "inhibition", "setting": "[18]", "value": "Active"},
      {"measurement": "inhibition", "setting": "[19]", "value": "inactive"},
      {"measurement": "inhibition", "setting": "[20]", "value": "Active"},
      {"measurement": "inhibition", "setting": "SiHa [21]", "value": "inactive"},
      {"measurement": "inhibition", "setting": "[22]", "value": "Active"},
      {"measurement": "inhibition", "setting": "[23]", "value": "Active"},
      {"measurement": "inhibition", "setting": "[24]", "value": "Active"},
      {"measurement": "inhibition", "setting": "[25]", "value": "Active"},
      {"measurement": "inhibition", "setting": "[26]", "value": "Active"},
      {"measurement": "inhibition", "setting": "[27]", "value": "Active"},
      {"measurement": "inhibition", "setting": "[28]", "value": "inactive"},
      {"measurement": "inhibition", "setting": "[29]", "value": "inactive"},
      {"measurement": "inhibition", "setting": "[30]", "value": "inactive"},
      {"measurement": "Activity", "setting": "[31]", "value": "Non-Toxic"},
      {"measurement": "Activity", "setting": "[32]", "value": "Non-Toxic"},
      {"measurement": "Activity", "setting": "[33]", "value": "Non-Toxic"},
      {"measurement": "Activity", "setting": "SiHa [34]", "value": "Active"},
      {"measurement": "Activity", "setting": "SiHa [35]", "value": "Active"},
      {"measurement": "Activity", "setting": "SiHa [36]", "value": "Active"},
      {"measurement": "Activity", "setting": "SiHa [37]", "value": "Active"},
      {"measurement": "Activity", "setting": "SiHa [38]", "value": "Active"}
    ]}
  ]
}
